Results published in patent publication US20240166652A1, “MODULATORS OF THE INTEGRATED STRESS PATHWAY” (Calico Life Sciences LLC, priority 2017, published 2024).

tested on: ATF4 luciferase reporter in HEK293T cells; test: ATF4-Luc assay (ATF4 luciferase reporter, tunicamycin-treated HEK293T cells); format: cell-based, human; settings: Homo sapiens, HEK-293T; HEK293T cells carrying the ATF4 luciferase reporter, 1 μg/mL tunicamycin, 7 hours

`Cc1cccc(OCC(=O)NC23CCC(NC(=O)COc4ccc(Cl)c(F)c4)(CC2)C[C@@H]3O)c1` [Compound 509, 2-(4-chloro-3-fluorophenoxy)-N-{(3S)-3-hydroxy-4-[2-(3-methylphenoxy)acetamido]bicyclo[2.2.2]octan-1-yl}acetamide] and `Cc1ccc(OCC(=O)NC23CCC(NC(=O)COc4ccc(Cl)c(F)c4)(CC2)C[C@@H]3O)cc1` [Compound 521, 2-(4-chloro-3-fluorophenoxy)-N-{(3S)-3-hydroxy-4-[2-(4-methylphenoxy)acetamido]bicyclo[2.2.2]octan-1-yl}acetamide] cannot be ordered by EC50: less than 10 nM for the first, less than 10 nM for the second.

`Cc1ccc(OCC(=O)NC23CCC(NC(=O)COc4ccc(Cl)c(F)c4)(CC2)C[C@@H]3O)cc1C` [Compound 510, 2-(4-chloro-3-fluorophenoxy)-N-{(3S)-4-[2-(3,4-dimethylphenoxy)acetamido]-3-hydroxybicyclo[2.2.2]octan-1-yl}acetamide] and `Cc1cc(OCC(=O)NC23CCC(NC(=O)COc4ccc(Cl)c(C)c4)(CC2)[C@@H](O)C3)ccc1Cl` [Compound 525, N,N′-[(2S)-2-hydroxybicyclo[2.2.2]octane-1,4-diyl]bis[2-(4-chloro-3-methylphenoxy)acetamide]] cannot be ordered by EC50: less than 10 nM for the first, less than 10 nM for the second.

`CC(=O)c1ccc(OCC(=O)NC23CCC(NC(=O)COc4ccc(Cl)c(F)c4)(CC2)C[C@@H]3O)cc1` [Compound 511, 2-(4-acetylphenoxy)-N-{(2S)-4-[2-(4-chloro-3-fluorophenoxy)acetamido]-2-hydroxybicyclo[2.2.2]octan-1-yl}acetamide] and `CC(=O)c1ccc(OCC(=O)NC23CCC(NC(=O)COc4ccc(Cl)c(F)c4)(CC2)[C@@H](O)C3)cc1` [Compound 524, 2-(4-acetylphenoxy)-N-{(3S)-4-[2-(4-chloro-3-fluorophenoxy)acetamido]-3-hydroxybicyclo[2.2.2]octan-1-yl}acetamide] fall in the same range of EC50: 10 to 50 nM for the first, 10 to 50 nM for the second.

First: O=C(COc1ccc(Cl)c(F)c1)NC12CCC(NC(=O)COc3nc4ccccc4s3)(CC1)[C@@H](O)C2 [Compound 512, 2-[(1,3-benzothiazol-2-yl)oxy]-N-{(2S)-4-[2-(4-chloro-3-fluorophenoxy)acetamido]-2-hydroxybicyclo[2.2.2]octan-1-yl}acetamide]
Second: Cc1cc(OCC(=O)NC23CCC(NC(=O)COc4ccc(Cl)c(F)c4)(CC2)C[C@@H]3O)c2ccccc2n1 [Compound 520, 2-(4-chloro-3-fluorophenoxy)-N-[(3S)-3-hydroxy-4-{2-[(2-methylquinolin-4-yl)oxy]acetamido}bicyclo[2.2.2]octan-1-yl]acetamide]
The EC50 of the first is higher: greater than 2000 nM for the first, 10 to 50 nM for the second.

Compared with `O=C(COc1ccc(Cl)c(F)c1)NC12CCC(NC(=O)COc3cc(-c4ccccc4)n(-c4ccccc4)n3)(CC1)[C@@H](O)C2` [Compound 513, 2-(4-chloro-3-fluorophenoxy)-N-[(3S)-4-{2-[(1,5-diphenyl-1H-pyrazol-3-yl)oxy]acetamido}-3-hydroxybicyclo[2.2.2]octan-1-yl]acetamide], `O=C(COc1ccc(Cl)c(F)c1)NC12CCC(NC(=O)COc3ccc4ccccc4c3)(CC1)[C@@H](O)C2` [Compound 517, 2-(4-chloro-3-fluorophenoxy)-N-[(3S)-3-hydroxy-4-{2-[(naphthalen-2-yl)oxy]acetamido}bicyclo[2.2.2]octan-1-yl]acetamide] is lower in EC50: greater than 2000 nM for the first, less than 10 nM for the second. The second is the more potent here.

Compared with `O=C(COc1ccc(Cl)c(F)c1)NC12CCC(NC(=O)COc3ncnc4sccc34)(CC1)[C@@H](O)C2` [Compound 514, 2-(4-chloro-3-fluorophenoxy)-N-[(3S)-3-hydroxy-4-{2-[(thieno[2,3-d]pyrimidin-4-yl)oxy]acetamido}bicyclo[2.2.2]octan-1-yl]acetamide], `O=C(COc1ccc(Cl)c(F)c1)NC12CCC(NC(=O)COc3noc4ccccc34)(CC1)[C@@H](O)C2` [Compound 515, 2-[(1,2-benzoxazol-3-yl)oxy]-N-{(2S)-4-[2-(4-chloro-3-fluorophenoxy)acetamido]-2-hydroxybicyclo[2.2.2]octan-1-yl}acetamide] is lower in EC50: 10 to 50 nM for the first, less than 10 nM for the second.

First: O=C(COc1ccc(Cl)c(F)c1)NC12CCC(NC(=O)COc3ncn(-c4ccc(Cl)cc4)n3)(CC1)[C@@H](O)C2 [Compound 516, 2-(4-chloro-3-fluorophenoxy)-N-[(3S)-4-(2-{[1-(4-chlorophenyl)-1H-1,2,4-triazol-3-yl]oxy}acetamido)-3-hydroxybicyclo[2.2.2]octan-1-yl]acetamide]
Second: O=C(COc1ccc(Cl)c(F)c1)NC12CCC(NC(=O)COc3ccc(Cl)nn3)(CC1)[C@@H](O)C2 [Compound 518, 2-(4-chloro-3-fluorophenoxy)-N-[(3S)-4-{2-[(6-chloropyridazin-3-yl)oxy]acetamido}-3-hydroxybicyclo[2.2.2]octan-1-yl]acetamide]
The EC50 of the first is higher: greater than 2000 nM for the first, 10 to 50 nM for the second. The second is the more potent here.

Compared with `COC(=O)c1cc(OCC(=O)NC23CCC(NC(=O)COc4ccc(Cl)c(F)c4)(CC2)C[C@@H]3O)no1` [Compound 519, methyl 3-[2-({(2S)-4-[2-(4-chloro-3-fluorophenoxy)acetamido]-2-hydroxybicyclo[2.2.2]octan-1-yl}amino)-2-oxoethoxy]-1,2-oxazole-5-carboxylate], `COc1cc(OCC(=O)NC23CCC(NC(=O)COc4ccc(Cl)c(F)c4)(CC2)C[C@@H]3O)ccc1Cl` [Compound 528, 2-(4-chloro-3-fluorophenoxy)-N-{(3S)-4-[2-(4-chloro-3-methoxyphenoxy)acetamido]-3-hydroxybicyclo[2.2.2]octan-1-yl}acetamide] is lower in EC50: greater than 2000 nM for the first, less than 10 nM for the second. The second is the more potent here.

Compared with `CCCS(=O)(=O)c1ccc(OCC(=O)NC23CCC(NC(=O)COc4ccc(Cl)c(F)c4)(CC2)C[C@@H]3O)cc1` [Compound 522, 2-(4-chloro-3-fluorophenoxy)-N-[(3S)-3-hydroxy-4-{2-[4-(propane-1-sulfonyl)phenoxy]acetamido}bicyclo[2.2.2]octan-1-yl]acetamide], `O=C(COc1ccc(Cl)c(F)c1)NC12CCC(NC(=O)COc3ccc(C(F)F)cc3)(CC1)[C@@H](O)C2` [Compound 537, 2-(4-chloro-3-fluorophenoxy)-N-[(3S)-4-{2-[4-(difluoromethyl)phenoxy]acetamido}-3-hydroxybicyclo[2.2.2]octan-1-yl]acetamide] is lower in EC50: greater than 2000 nM for the first, less than 10 nM for the second. The second is the more potent here.

Going from `O=C(COc1ccc(Cl)c(F)c1)NC12CCC(NC(=O)COc3nc(N4CCCCC4)nc(N4CCCCC4)n3)(CC1)[C@@H](O)C2` [Compound 523, 2-(4-chloro-3-fluorophenoxy)-N-[(3S)-4-(2-{[4,6-di(piperidin-1-yl)-1,3,5-triazin-2-yl]oxy}acetamido)-3-hydroxybicyclo[2.2.2]octan-1-yl]acetamide] to `O=C(COc1ccc(C(F)F)cc1)NC12CCC(NC(=O)COc3ccc(Cl)c(F)c3)(CC1)[C@@H](O)C2` [Compound 539, 2-(4-chloro-3-fluorophenoxy)-N-[(2S)-4-{2-[4-(difluoromethyl)phenoxy]acetamido}-2-hydroxybicyclo[2.2.2]octan-1-yl]acetamide], the EC50 falls from greater than 2000 nM to less than 10 nM. The second is the more potent here.

First: O=C(COc1ccc(Cl)c(Cl)c1)NC12CCC(NC(=O)COc3ccc(Cl)c(Cl)c3)(CC1)C2 [Compound 526, N,N′-(bicyclo[2.2.1]heptane-1,4-diyl)bis[2-(3,4-dichlorophenoxy)acetamide]]
Second: O=C(COc1ccc(Cl)c(Cl)c1)NC12CCC(NC(=O)COc3ccc(Cl)c(Cl)c3)(CC1)[C@@H](O)C2 [Compound 538, N,N′-[(2S)-2-hydroxybicyclo[2.2.2]octane-1,4-diyl]bis[2-(3,4-dichlorophenoxy)acetamide]]
The EC50 of the first is higher: 10 to 50 nM for the first, less than 10 nM for the second.

First: O=C(COc1ccc(Cl)cc1)NC12CCC(NC(=O)COc3ccc(Cl)cc3)(CC1)C2 [Compound 527, N,N′-(bicyclo[2.2.1]heptane-1,4-diyl)bis[2-(4-chlorophenoxy)acetamide]]
Second: O=C(COc1ccc(Cl)cc1)NC12CCC(NC(=O)COc3ccc(Cl)cc3)(CC1)[C@@H](O)C2 [Compound 540, N,N′-[(2S)-2-hydroxybicyclo[2.2.2]octane-1,4-diyl]bis[2-(4-chlorophenoxy)acetamide]]
The EC50 of the first is higher: 10 to 50 nM for the first, less than 10 nM for the second.

First: O=C(COc1ccc(C(F)(F)F)nc1)NC12CCC(NC(=O)COc3ccc(C(F)(F)F)nc3)(CC1)C2 [Compound 530, N,N′-(bicyclo[2.2.1]heptane-1,4-diyl)bis(2-{[6-(trifluoromethyl)pyridin-3-yl]oxy}acetamide)]
Second: O=C(COc1ccc(C(F)(F)F)cc1)NC12CCC(NC(=O)COc3ccc(C(F)(F)F)cc3)(CC1)[C@@H](O)C2 [Compound 536, N,N′-[(2S)-2-hydroxybicyclo[2.2.2]octane-1,4-diyl]bis{2-[4-(trifluoromethyl)phenoxy]acetamide}]
The EC50 of the first is higher: 500 to 2000 nM for the first, less than 10 nM for the second.

Compared with `O=C(COc1ccc2c(c1)OC(F)(F)O2)NC12CCC(NC(=O)COc3ccc4c(c3)OC(F)(F)O4)(CC1)C2` [Compound 531, N,N′-(bicyclo[2.2.1]heptane-1,4-diyl)bis{2-[(2,2-difluoro-2H-1,3-benzodioxol-5-yl)oxy]acetamide}], `O=C(COc1ccc(Cl)c(F)c1)NC12CCC(NC(=O)COc3ccc(F)c(Cl)c3)(C1)C2` [Compound 535, 2-(3-chloro-4-fluorophenoxy)-N-{4-[2-(4-chloro-3-fluorophenoxy)acetamido]bicyclo[2.1.1]hexan-1-yl}acetamide] is lower in EC50: 250 to 500 nM for the first, 10 to 50 nM for the second. The second is the more potent here.

`O=C(COc1ccc(F)cc1)NC12CC(NC(=O)COc3ccc(Cl)c(Cl)c3)(C1)C2` [Compound 532, 2-(3,4-dichlorophenoxy)-N-{3-[2-(4-fluorophenoxy)acetamido]bicyclo[1.1.1]pentan-1-yl}acetamide] and `O=C(COc1ccc(F)c(Cl)c1)NC12CC(NC(=O)COc3ccc(Cl)c(Cl)c3)(C1)C2` [Compound 533, 2-(3-chloro-4-fluorophenoxy)-N-{3-[2-(3,4-dichlorophenoxy)acetamido]bicyclo[1.1.1]pentan-1-yl}acetamide] cannot be ordered by EC50: less than 10 nM for the first, less than 10 nM for the second.

Compound `O=C(COc1ccc(Cl)c(F)c1)NC12CC(NC(=O)COc3ccc(F)c(Cl)c3)(C1)C2` [Compound 534, 2-(4-chloro-3-fluorophenoxy)-N-{3-[2-(3-chloro-4-fluorophenoxy)acetamido]bicyclo[1.1.1]pentan-1-yl}acetamide] has an EC50 of less than 10 nM.
